In patent publication US12139508B2, “Steroid derivative regulators, method for preparing the same, and uses thereof” (JIANGSU HANSOH PHARMACEUTICAL GROUP CO., LTD., priority 2018, dated 2024):
Like-named read-outs stand apart in the source and are kept apart here.

Columns and labels:
[1] = Pharmacokinetic assay in Balb/c mice (plasma and brain tissue); format: in vivo; conditions: mouse, po, 5 mg/kg p.o., male Balb/c mice; for AUC(0-t): read-out: Area under curve AUC0-t; for AUC(0-inf): read-out: Area under curve AUC0-∞; for half-life: read-out: Half-life t1/2 (converted); for MRT: read-out: Mean residence time MRT; for Tmax: read-out: Peak time tmax; for Cmax: read-out: Plasma concentration Cmax
Summary of the method: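 Compound levels in plasma and brain were measured by LC/MS/MS with an internal standard after protein precipitation with acetonitrile. Samples came from overnight-fasted male Balb/c mice given 5 mg/kg p.o., with cardiac blood drawn at 0–24 h. Pharmacokinetic parameters were then calculated.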

forced-swimming mice = test: In vivo pharmacodynamic test in the forced swimming model in mice; conditions: ICR mice; for Mean (immobility, %): 100*floating time/240 s; for Immobility time during the latter four minutes compared with that of the model group: forced swimming
Procedure: The antidepressant effect of the compound was evaluated by the forced swimming model in mice.
Male ICR mice (25-35 g) were adapted in the test environment for 3 days before the forced swimming test.
According to the test design, the mice were randomly grouped on the day before the test according to body weight, with 12 mice in each group. Before the test, the compounds of each example were administered intragastrically according to the Tmax thereof in the brain in mice pharmacokinetic test as follows: • 1) Model group (0.5% CMC-Na-1% Tween 80 solution, p.o., 10 mL/kg); • 2) Compounds of Example 2, Example 3, Example 5, Example 6, Example 9, Examples 59-63, Examples 71-73, Example 103, Example 135, Example 137, Example 145 and Example 146 (10 mg/kg, p.o., 10 mL/kg); Example 13 and Example 74 (5 mg/kg, p.o., 5 mL/kg).
When being administered, the compounds of each example were suspended in 0.5% CMC-Na+1% Tween 80 solution to the desired concentration.
0.5-1 hour after administration, ICR mice were placed in a forced swimming device (transparent glass drum (water depth 18 cm, water temperature 25-26° C.), one mouse per tank) and forced to swim for 6 minutes. The forced swimming device recorded the floating time of the ICR mice during the entire 6 minutes, and the data of the latter four minutes were used for data analysis. The mice were taken out immediately after the swimming test, wiped dry and put back in their original cages.
Note: The criterion for determining the immobility time is that the mouse stops struggling in water and floats, and there are only slight limb movements to keep the head floating on the water.
3.4 Data Analysis Floating time percentage=100*floating time/240 s.

Row | SMILES | AUC(0-t) ([1]; brain tissue) [ng·h/mL] | AUC(0-inf) ([1]; brain tissue) [ng·h/mL] | half-life ([1]; brain tissue) [h] | MRT ([1]; brain tissue) [h] | Tmax ([1]; brain tissue) [h] | Cmax ([1]; brain tissue) [ng/mL] | AUC(0-t) ([1]; plasma) [ng·h/mL] | AUC(0-inf) ([1]; plasma) [ng·h/mL] | half-life ([1]; plasma) [h] | MRT ([1]; plasma) [h] | Tmax ([1]; plasma) [h] | Cmax ([1]; plasma) [ng/mL] | Mean (immobility, %) (forced-swimming mice; dose 5 mpk p.o.) [%] | Immobility time during the latter four minutes compared with that of the model group (forced-swimming mice) | Mean (immobility, %) (forced-swimming mice; dose 10 mpk p.o.) [%] | Mean (immobility, s) (forced-swimming mice; dose 10 mpk p.o., latter four minutes of 6 min swim) [s]
1 | C[C@@]1(O)CC[C@H]2[C@H](CC[C@@H]3[C@@H]2CC[C@@]2(C)[C@H]3[C@H](C3CC3)C[C@@H]2C(=O)Cn2ncnn2)C1 [Example 146, 1-((3R,5R,8R,9R,10S,13S,14S,15S,17S)-15-Cyclopropyl-3-hydroxy-3,13-dimethylhexadecahydro-1H-cyclopenta[a]phenanthren-17-yl)-2-(2H-tetrazol-2-yl)ethan-1-one] | 8680 | 12500 | 4.66 | 6.73 | 1 | 1970 | 7790 | 8000 | 1.45 | 2.97 | 1 | 2090 | 33.54 | significantly different | – | –
2 | C[C@@]1(O)CC[C@H]2[C@H](CC[C@@H]3[C@@H]2CC[C@@]2(C)[C@H]3[C@H](C3CC3)C[C@@H]2C(=O)Cn2ccnn2)C1 [Example 145, 1-((3R,5R,8R,9R,10S,13S,14S,15S,17S)-15-Cyclopropyl-3-hydroxy-3,13-dimethylhexadecahydro-1H-cyclopenta[a]phenanthren-17-yl)-2-(1H-1,2,3-triazol-1-yl)ethan-1-one] | 4820 | 5270 | 2.09 | 3.4 | 1 | 1480 | 13400 | 13400 | 1.75 | 3.47 | 1 | 2990 | 30.72 | – | – | –
3 | C[C@@]1(O)CC[C@H]2[C@H](CC[C@@H]3[C@@H]2CC[C@]2(C)C(C(=O)Cn4cc(C#N)cn4)C[C@@H](C4CC4)[C@@H]32)C1 (stereo partly drawn) [Example 71, 1-(2-((3R,5R,8R,9R,10S,13S,14S,15S)-15-Cyclopropyl-3-hydroxy-3,13-dimethylhexadecahydro-1H-cyclopenta[a]phenanthren-17-yl)-2-oxoethyl)-1H-pyrazole-4-carbonitrile] | 1130 | 1280 | 2 | 3.66 | 1 | 383 | 1580 | 1760 | 2.04 | 3.5 | 1 | 508 | – | – | 55.92 | –
4 | CC[C@@H]1C[C@H](C(=O)Cn2ccc(C#N)n2)[C@@]2(C)CC[C@H]3[C@@H](CC[C@@H]4C[C@](C)(O)CC[C@@H]43)[C@H]12 [Example 137, 1-(2-((3R,5R,8R,9R,10S,13S,14S,15R,17S)-15-Ethyl-3-hydroxy-3,13-dimethylhexadecahydro-1H-cyclopenta[a]phenanthren-17-yl)-2-oxoethyl)-1H-pyrazole-3-carbonitrile] | 2130 | 3160 | 6.02 | 7.58 | 1 | 613 | 2780 | 3790 | 3.85 | 5.88 | 1 | 763 | – | significantly different | 36.92 | –
5 | C[C@@]1(O)CC[C@H]2[C@H](CC[C@@H]3[C@@H]2CC[C@@]2(C)[C@H]3[C@@H]3C[C@@H]3[C@@H]2C(=O)Cn2cc(C(F)(F)F)cn2)C1 [Example 5, 1-((2R,4aS,4bR,6aS,7S,7aS,8aR,8bR,8cR,10aR)-2-Hydroxy-2,6a-dimethyloctadecahydrocyclopropa[4,5]cyclopenta[1,2-a]phenanthren-7-yl)-2-(4-(trifluoromethyl)-1H-pyrazol-1-yl)ethan-1-one] | 2300 | 3070 | 4.72 | 5.53 | 0.5 | 1410 | 1240 | 1250 | 5.12 | 4.8 | 0.5 | 461 | – | – | 59.93 | –
6 | C[C@@H]1C[C@H](C(=O)Cn2cc(C#N)cn2)[C@@]2(C)CC[C@H]3[C@@H](CC[C@@H]4C[C@](C)(O)CC[C@@H]43)[C@H]12 [Example 13, 1-(2-((3R,5R,8R,9R,10S,13S,14S,15R)-3-Hydroxy-3,13,15-trimethylhexadecahydro-1H-cyclopenta[a]phenanthren-17-yl)-2-oxoethyl)-1H-pyrazole-4-carbonitrile] | 4730 | 4740 | 2.5 | 3.9 | 1 | 1060 | 5060 | 5070 | 2.5 | 3.6 | 1 | 1210 | 57.60 | – | – | –
7 | C[C@@]1(O)CC[C@H]2[C@H](CC[C@@H]3[C@@H]2CC[C@@]2(C)[C@H]3[C@@H]3C[C@@H]3[C@@H]2C(=O)Cn2ccc(C#N)n2)C1 [Example 3, 1-(2-((2R,4aS,4bR,6aS,7S,7aS,8aR,8bR,8cR,10aR)-2-hydroxy-2,6a-dimethyloctadecahydrocyclopropa[4,5]cyclopenta[1,2-a]phenanthren-7-yl)-2-oxoethyl)-1H-pyrazole-3-carbonitrile] | 719 | 722 | 0.5 | 1.1 | 0.5 | 690 | 570 | 574 | 0.5 | 1.01 | 0.5 | 673 | – | significantly different | 28.50 | 68.39
8 | C[C@@H]1C[C@H](C(=O)Cn2ccc(C#N)n2)[C@@]2(C)CC[C@H]3[C@@H](CC[C@@H]4C[C@](C)(O)CC[C@@H]43)[C@H]12 [Example 60, 1-(2-((3R,5R,8R,9R,10S,13S,14S,15R,17S)-3-Hydroxy-3,13,15-trimethylhexadecahydro-1H-cyclopenta[a]phenanthren-17-yl)-2-oxoethyl)-1H-pyrazole-3-carbonitrile] | 2400 | 2500 | 2.37 | 2.35 | 1 | 998 | 1700 | 1770 | 1.64 | 1.43 | 0.5 | 720 | – | significantly different | 35.30 | –
9 | C[C@@]1(O)CC[C@H]2[C@H](CC[C@@H]3[C@@H]2CC[C@@]2(C)[C@H]3[C@@H]3C[C@@H]3[C@@H]2C(=O)Cn2cc(C#N)cn2)C1 [Example 2, 1-(2-((2R,4aS,4bR,6aS,7S,7aS,8aR,8bR,8cR,10aR)-2-hydroxy-2,6a-dimethyloctadecahydrocyclopropa[4,5]cyclopenta[1,2-a]phenanthren-7-yl)-2-oxoethyl)-1H-pyrazole-4-carbonitrile] | 840 | 913 | 2.84 | 2.39 | 0.5 | 637 | 1360 | 1370 | 0.54 | 1.21 | 0.5 | 1100 | – | – | 54.26 | –
